Legend:
[1] = system: Glomerella lagenarium (Colletotrichum laqenarium); experiment: Glomerella lagenarium (Colletotrichum lagenarium) / liquid culture (Anthracnose); type: cell-based; settings: growth inhibition photometrically 3-4 days after application, compared to untreated control
Experimental: (§1) Glomerella lagenarium (Colletotrichum laqenarium)/liquid culture (Anthracnose) Conidia of the fungus from cryogenic storage are directly mixed into nutrient broth (PDB potato dextrose broth). After placing a (DMSO) solution of test compound into a microtiter plate (96-well format), the nutrient broth containing the fungal spores is added. The test plates are incubated at 24° C. and the inhibition of growth is measured photometrically 3-4 days after application.

[2] = system: Monographella nivalis (Microdochium nivale); experiment: Monographella nivalis (Microdochium nivale) / liquid culture (Foot rot cereals); type: cell-based; settings: growth inhibition photometrically 4-5 days after application, compared to untreated control
Experimental: as §1, with “Monographella nivalis (Microdochium nivale)/Liquid Culture (Foot Rot Cereals)” for “Glomerella lagenarium (Colletotrichum laqenarium)/liquid culture (Anthracnose)”, “determined” for “measured”, “4-5” for “3-4”

[3] = system: Botryotinia fuckeliana (Botrytis cinerea); experiment: Botryotinia fuckeliana (Botrytis cinerea) / liquid culture (Gray mould); type: cell-based; settings: growth inhibition photometrically 3-4 days after application, compared to untreated control
Experimental: as §1, with “Botryotinia Fuckeliana (Botrytis cinerea)/Liquid Culture (Gray Mould)” for “Glomerella lagenarium (Colletotrichum laqenarium)/liquid culture (Anthracnose)”, “(Vogels” for “(PDB potato dextrose”, “determined” for “measured”

| melting point | SMILES | inhibition of growth at 20 ppm [1] | inhibition of growth at 20 ppm [2] | inhibition of growth at 20 ppm [3] |
| --- | --- | --- | --- | --- |
| – | CC(C)CC1(C)CC(C)(C)OC(c2cnc3c(F)cccc3c2)=N1 (stereo not drawn) [E.013, 2-(8-fluoro-3-quinolyl)-4-isobutyl-4,6,6-trimethyl-5H-1,3-oxazine] | ≥ 80% | ≥ 80% | ≥ 80% |
| 105 to 107 °C | CC1(COc2ccccc2)CC(C)(C)OC(c2cnc3c(F)c(F)ccc3c2)=N1 (stereo not drawn) [E.06, 2-(7,8-difluoro-3-quinolyl)-4,6,6-trimethyl-4-(phenoxymethyl)-5H-1,3-oxazine] | – | ≥ 80% | ≥ 80% |
| – | CC1(COc2ccccc2)CC(C)(C)OC(c2cnc3c(F)cccc3c2)=N1 (stereo not drawn) [E.08, 2-(8-fluoro-3-quinolyl)-4,6,6-trimethyl-4-(phenoxymethyl)-5H-1,3-oxazine] | ≥ 80% | ≥ 80% | ≥ 80% |
| – | CC(C)CC1(C)CC(C)(C)OC(c2cnc3c(F)c(F)ccc3c2)=N1 (stereo not drawn) [E.014, 2-(7,8-difluoro-3-quinolyl)-4-isobutyl-4,6,6-trimethyl-5H-1,3-oxazine] | ≥ 80% | ≥ 80% | ≥ 80% |
| – | CC1(COc2ccc(Br)cc2)CC(C)(C)OC(c2cnc3c(F)cccc3c2)=N1 (stereo not drawn) [E.03, 4-[(4-bromophenoxy)methyl]-2-(8-fluoro-3-quinolyl)-4,6,6-trimethyl-5H-1,3-oxazine] | ≥ 80% | ≥ 80% | ≥ 80% |
| – | CC(C)CC1CC(C)(C)OC(c2cnc3c(F)c(F)ccc3c2)=N1 (stereo not drawn) [E.012, 2-(7,8-difluoro-3-quinolyl)-4-isobutyl-6,6-dimethyl-4,5-dihydro-1,3-oxazine] | ≥ 80% | ≥ 80% | ≥ 80% |
| – | CC1(COc2ccc(Br)cc2Br)CC(C)(C)OC(c2cnc3c(F)cccc3c2)=N1 (stereo not drawn) [E.02, 4-[(2,4-dibromophenoxy)methyl]-2-(8-fluoro-3-quinolyl)-4,6,6-trimethyl-5H-1,3-oxazine] | – | ≥ 80% | ≥ 80% |
| – | CCC1(C)CC(C)(CC(C)C)N=C(c2cnc3c(F)cccc3c2)O1 (stereo not drawn) [E.018, 6-ethyl-2-(8-fluoro-3-quinolyl)-4-isobutyl-4,6-dimethyl-5H-1,3-oxazine] | ≥ 80% | ≥ 80% | ≥ 80% |
| – | C=C(C)CC1(CC)CC(C)(C)OC(c2cnc3c(F)cccc3c2)=N1 (stereo not drawn) [E.020, 4-ethyl-2-(8-fluoro-3-quinolyl)-6,6-dimethyl-4-(2-methylallyl)-5H-1,3-oxazine] | ≥ 80% | ≥ 80% | ≥ 80% |
| – | CC1(C)CC(COc2ccccc2)N=C(c2cnc3c(F)c(F)ccc3c2)O1 (stereo not drawn) [E.07, 2-(7,8-difluoro-3-quinolyl)-6,6-dimethyl-4-(phenoxymethyl)-4,5-dihydro-1,3-oxazine] | – | ≥ 80% | ≥ 80% |
| – | CC1(COc2ccc(F)cc2)CC(C)(C)OC(c2cnc3c(F)cccc3c2)=N1 (stereo not drawn) [E.04, 4-[(4-fluorophenoxy)methyl]-2-(8-fluoro-3-quinolyl)-4,6,6-trimethyl-5H-1,3-oxazine] | ≥ 80% | ≥ 80% | ≥ 80% |
| – | CC1(CC2CCCCC2)CC(C)(C)OC(c2cnc3c(F)c(F)ccc3c2)=N1 (stereo not drawn) [E.015, 4-(cyclohexylmethyl)-2-(7,8-difluoro-3-quinolyl)-4,6,6-trimethyl-5H-1,3-oxazine] | ≥ 80% | ≥ 80% | ≥ 80% |
| – | Cc1nc2c(F)c(F)ccc2cc1C1=NC(C)(COc2ccccc2)CC(C)(C)O1 (stereo not drawn) [E.05, 2-(7,8-difluoro-2-methyl-3-quinolyl)-4,6,6-trimethyl-4-(phenoxymethyl)-5H-1,3-oxazine] | – | ≥ 80% | ≥ 80% |
| – | CC(C)CC1(C)CC(C)(C(C)C)OC(c2cnc3c(F)cccc3c2)=N1 (stereo not drawn) [E.017, 2-(8-fluoro-3-quinolyl)-4-isobutyl-6-isopropyl-4,6-dimethyl-5H-1,3-oxazine] | ≥ 80% | ≥ 80% | ≥ 80% |
| – | CC1(C)CC(CCC(F)(F)F)N=C(c2cnc3c(F)c(F)ccc3c2)O1 (stereo not drawn) [E.010, 2-(7,8-difluoro-3-quinolyl)-6,6-dimethyl-4-(3,3,3-trifluoropropyl)-4,5-dihydro-1,3-oxazine] | – | ≥ 80% | ≥ 80% |
| – | C=C(C)CC1(C)CC(C)(C)OC(c2cnc3c(F)cccc3c2)=N1 (stereo not drawn) [E.019, 2-(8-fluoro-3-quinolyl)-4,6,6-trimethyl-4-(2-methylallyl)-5H-1,3-oxazine] | ≥ 80% | ≥ 80% | ≥ 80% |
| – | CC1(COc2ccc(C#N)cc2)CC(C)(C)OC(c2cnc3c(F)cccc3c2)=N1 (stereo not drawn) [E.01, 4-[[2-(8-fluoro-3-quinolyl)-4,6,6-trimethyl-5H-1,3-oxazin-4-yl]methoxy]benzonitrile] | – | ≥ 80% | ≥ 80% |
| 112 to 113 °C | CC(C)(C)CC1CC(C)(C)OC(c2cnc3c(F)c(F)ccc3c2)=N1 (stereo not drawn) [E.011, 2-(7,8-difluoro-3-quinolyl)-4-(2,2-dimethylpropyl)-6,6-dimethyl-4,5-dihydro-1,3-oxazine] | – | ≥ 80% | ≥ 80% |
| 146 to 148 °C | CC1(C)CC(CC(F)(F)F)N=C(c2cnc3c(F)c(F)ccc3c2)O1 (stereo not drawn) [E.09, 2-(7,8-difluoro-3-quinolyl)-6,6-dimethyl-4-(2,2,2-trifluoroethyl)-4,5-dihydro-1,3-oxazine] | – | ≥ 80% | – |
| – | C=C(C)CC1(C)CC(C)(C)OC(c2cnc3c(F)c(F)ccc3c2)=N1 (stereo not drawn) [E.016, 2-(7,8-difluoro-3-quinolyl)-4,6,6-trimethyl-4-(2-methylallyl)-5H-1,3-oxazine] | ≥ 80% | ≥ 80% | ≥ 80% |
